In ChEMBL document CHEMBL1141344, “Variation in cytostatic constituents of a sponge-derived Gymnascella dankaliensis by manipulating the carbon source” (2007):
≈ marks a conversion by molar mass, not a printed value.

Columns and labels:
Type in all cases: functional
[1] = system: ACHN; assay: Cytotoxicity against human ACHN cells
[2] = system: St-4; assay: Cytotoxicity against human St4 cells
[3] = Cytotoxicity against human MKN1 cells; details: MKN-1
[4] = system: MKN-7; assay: Cytotoxicity against human MKN7 cells
[5] = system: MKN-28; assay: Cytotoxicity against human MKN28 cells
[6] = system: MKN-45; assay: Cytotoxicity against human MKN45 cells
[7] = system: MKN-74; assay: Cytotoxicity against human MKN74 cells
[8] = system: DU-145; assay: Cytotoxicity against human DU145 cells
[9] = system: OVCAR-5; assay: Cytotoxicity against human OVCAR5 cells
[10] = system: PC-3; assay: Cytotoxicity against human PC3 cells
[11] = system: P388; assay: Growth inhibition of mouse P388 cells; details: read-out: ED50 (the source's name)
[12] = Cytotoxicity against human HBC4 cells
[13] = Cytotoxicity against human BSY1 cells; details: BSY-1
[14] = Cytotoxicity against human HBC5 cells
[15] = system: MCF7; assay: Cytotoxicity against human MCF7 cells
[16] = system: MDA-MB-231; assay: Cytotoxicity against human MDA-MB-231 cells
[17] = system: U-251; assay: Cytotoxicity against human U251 cells
[18] = system: SF-268; assay: Cytotoxicity against human SF268 cells
[19] = system: SF-295; assay: Cytotoxicity against human SF295 cells
[20] = system: SF-539; assay: Cytotoxicity against human SF539 cells
[21] = system: SNB-75; assay: Cytotoxicity against human SNB75 cells
[22] = system: SNB-78; assay: Cytotoxicity against human SNB78 cells
[23] = system: HCC 2998; assay: Cytotoxicity against human HCC2998 cells
[24] = system: KM12; assay: Cytotoxicity against human KM12 cells
[25] = system: HT-29; assay: Cytotoxicity against human HT29 cells
[26] = system: HCT-15; assay: Cytotoxicity against human HCT15 cells
[27] = system: HCT-116; assay: Cytotoxicity against human HCT116 cells
[28] = system: NCI-H23; assay: Cytotoxicity against human NCI-H23 cells
[29] = system: NCI-H226; assay: Cytotoxicity against human NCI-H226 cells
[30] = system: NCI-H522; assay: Cytotoxicity against human NCI-H522 cells
[31] = system: NCI-H460; assay: Cytotoxicity against human NCI-H460 cells
[32] = system: A549; assay: Cytotoxicity against human A549 cells
[33] = system: DMS-273; assay: Cytotoxicity against human DMS273 cells
[34] = system: DMS-114; assay: Cytotoxicity against human DMS114 cells
[35] = system: LOX IMVI; assay: Cytotoxicity against human LOX IMVI cells
[36] = system: OVCAR-3; assay: Cytotoxicity against human OVCAR-3 cells
[37] = system: OVCAR-4; assay: Cytotoxicity against human OVCAR4 cells
[38] = system: OVCAR-8; assay: Cytotoxicity against human OVCAR8 cells
[39] = system: SK-OV-3; assay: Cytotoxicity against human SKOV3 cells
[40] = Cytotoxicity against human RXF631L cells; details: RXF 631

Compound	GI50 [1] [µM]	GI50 [2] [µM]	GI50 [3] [µM]	GI50 [4] [µM]	GI50 [5] [µM]	GI50 [6] [µM]	GI50 [7] [µM]	GI50 [8] [µM]	GI50 [9] [µM]	GI50 [10] [µM]	EC50 [11] [µg/mL]	GI50 [12] [µM]	GI50 [13] [µM]	GI50 [14] [µM]	GI50 [15] [µM]	GI50 [16] [µM]	GI50 [17] [µM]	GI50 [18] [µM]	GI50 [19] [µM]	GI50 [20] [µM]	also measured
CC(C)[C@@H](C)/C=C/[C@@H](C)[C@H]1CCC(=O)[C@]23CC(=O)C4=CC(=O)CC[C@]4(C)[C@H]2CC[C@]13C [DANKASTERONE A]	2.4	12.9	1.82	4.57	3.98	11	4.37	4.07	2.29	5.62	2.2 (≈ 5.18 µM)	4.37	2.19	3.31	3.72	5.89	3.72	2.82	3.72	2.09	GI50 [21]: 4.27 µM; GI50 [22]: 3.02 µM; GI50 [23]: 1.91 µM; GI50 [24]: 3.72 µM; GI50 [25]: 8.13 µM; GI50 [26]: 2.51 µM; GI50 [27]: 2.29 µM; GI50 [28]: 3.8 µM; GI50 [29]: 3.8 µM; GI50 [30]: 2.51 µM; GI50 [31]: 11 µM; GI50 [32]: 14.1 µM; GI50 [33]: 1.7 µM; GI50 [34]: 1.7 µM; GI50 [35]: 2.19 µM; GI50 [36]: 2 µM; GI50 [37]: 2.4 µM; GI50 [38]: 3.63 µM; GI50 [39]: 15.8 µM; GI50 [40]: 15.8 µM
CC(C)[C@@H](C)/C=C/[C@@H](C)[C@H]1CCC(=O)[C@]23CC(=O)[C@@H]4CC(=O)CC[C@]4(C)[C@H]2CC[C@]13C [DANKASTERONE B]											2.8 (≈ 6.56 µM)										
CCCCCC[C@H](C)/C=C(C)/C=C/C(=O)N[C@]1(C=O)C[C@H]2C[C@H]([C@H](C)/C=C/[C@H](C)C(C)C)[C@@]3(C)CC[C@H]4C(=C1C(=O)C1=C[C@@H](O)CC[C@@]14C)[C@@]23O [GYMNASTERONE A]	> 100	> 100	> 75.9	53.7	> 38	> 100	28.2	> 100	> 100	> 100		> 100	> 100	> 91.2	58.9	> 100	> 100	21.9	87.1	50.1	GI50 [21]: > 100 µM; GI50 [22]: 12.9 µM; GI50 [23]: > 100 µM; GI50 [24]: > 100 µM; GI50 [25]: > 100 µM; GI50 [26]: > 100 µM; GI50 [27]: > 100 µM; GI50 [28]: > 100 µM; GI50 [29]: 28.2 µM; GI50 [30]: 28.2 µM; GI50 [31]: > 100 µM; GI50 [32]: > 100 µM; GI50 [33]: > 100 µM; GI50 [34]: 72.4 µM; GI50 [35]: > 100 µM; GI50 [36]: 39.8 µM; GI50 [37]: 67.6 µM; GI50 [38]: > 100 µM; GI50 [39]: > 100 µM; GI50 [40]: 12.9 µM
CC(C)[C@@H](C)/C=C/[C@@H](C)[C@H]1C[C@H]2O[C@]23C2=CC(=O)[C@@H]4CC(=O)CC[C@]4(C)[C@H]2CC[C@]13C [GYMNASTERONE B]	> 100	> 100	45.7	47.9	60.3	72.4	83.2	28.8	44.7	89.1	1.6 (≈ 3.77 µM)	> 100	15.1	26.9	33.9	33.1	> 100	> 100	36.3	> 100	GI50 [21]: 56.2 µM; GI50 [22]: > 100 µM; GI50 [23]: 51.3 µM; GI50 [24]: 67.6 µM; GI50 [25]: 30.2 µM; GI50 [26]: 69.2 µM; GI50 [27]: 95.5 µM; GI50 [28]: 70.8 µM; GI50 [29]: 41.7 µM; GI50 [30]: 26.9 µM; GI50 [31]: > 100 µM; GI50 [32]: > 100 µM; GI50 [33]: 41.7 µM; GI50 [34]: 12.9 µM; GI50 [35]: 87.1 µM; GI50 [36]: 66.1 µM; GI50 [37]: 49 µM; GI50 [38]: 67.6 µM; GI50 [39]: > 100 µM; GI50 [40]: > 100 µM
CC(C)[C@@H](C)/C=C/[C@@H](C)[C@H]1CC(=O)C2=C3C=CC4=C[C@@H](O)CC[C@]4(C)[C@H]3CC[C@@]21C [GYMNASTERONE C]											0.9 (≈ 2.2 µM)										
CC(C)[C@@H](C)/C=C/[C@@H](C)[C@H]1CC(=O)C2=C3C=CC4=CC(=O)CC[C@]4(C)[C@H]3CC[C@@]21C [GYMNASTERONE D]											2.5 (≈ 6.15 µM)										
